According to patent US20240270713A1, “NOVEL COMPOUND EXHIBITING THERAPEUTIC EFFECT ON INFLAMMATORY DISEASE AS P38 MAP KINASE INHIBITOR” (PRAZERTHERAPEUTICS INC., priority 2021, published 2024):

Tests used:
[1] = biological target: T1, p-p38 MAPK (Mus musculus (Mouse), UniProt P47811); assay: p38 MAPK protein inhibitory ability in cells (p-p38 immunoblot, LPS-treated Raw264.7); type: cell-based; settings: Raw264.7 cells, 1 μM compound 24 hours, then 100 ng/ml LPS 6 hours
Experimental: Evaluation of p38 MAPK protein inhibitory ability in cells
(§1) In order to identify inhibition of p-p38 MAPK, inhibition of p38 MAPK was identified after treating each compound to Raw264.7 cells which are obtained by converting macrophages that induces inflammation according to p-p38 MAPK activity into cancerous cells. Briefly, Raw264.7 cells were cultured in Dulbecco's modified Eagle Medium supplemented with 10% fetal bovine serum and penicillin/streptomycin (100 U/ml). Raw264.7 cells were treated with 1 μM of Compounds 1 to 5 according to the present disclosure in a culture dish respectively and cultured for 24 hours in a CO2 incubator, and then treated with 100 ng/ml of LPS, followed by additional culture for 6 hours in a CO2 incubator.
(§2) After cell culture was terminated according to the experimental conditions, cells were washed with cold phosphate buffered saline (PBS). The cells were then collected and centrifuged at 1200 rpm for 3 minutes. The pellet was lysed with 2X sample buffer (1M Tris-HCl pH 6.8, 50% glycerol, 10% SDS, 2-mercaptoethanol, 1% bromophenol blue) and boiled at 100° C. for 10 minutes. The prepared protein samples were subjected to sodium dodecyl sulfate poly acrylamide gel electrophoresis and transferred to PVDF membrane (Millipore). For a specific binding reaction between the protein in the PVDF membrane and antibody, blocking was performed in a 5% bovine serum albumin (BSA, RMbio) solution. Subsequently, the BSA solution was discarded, and the membrane was washed with PBS-T (0.5% Tween 20 in PBS). The binding reaction of the protein in the membrane and antibody was performed overnight at 4° C. and washed again with PBS-T. Finally, a secondary antibody (Cell signaling Technology) conjugated with horse radish peroxidase (HRP) was diluted in PBS-T and reacted at room temperature for 2 hours. Luminata Forte HRP substrate (Millipore) was used to determine the amount of protein in the membrane, the results of which are shown in Table 4 below.

[2] = biological target: T1, p-p38 MAPK; assay: p38 MAPK protein inhibitory ability in normal brain cells (p-p38 immunoblot, primary neurons); type: cell-based, ICR mice
Source text: Evaluation of p38 MAPK protein inhibitory ability in normal brain cells
In order to identify inhibition of p-p38 MAPK in normal cells rather than cancer cells, the inhibition of p38 MAPK was identified by inducing inflammation after treating neuron cells obtained from cerebrum of ICR mice with each compound. In short, neurons were collected from the cerebrum of the embryos of ICR mice 17-18 days after gestation and cultured for 7 days in a neurobasal medium supplemented with 2% B27 supplements, 2 mM glutamine, and penicillin/streptomycin (100 U/ml). Primary neurons were treated with 1 μM of Compounds 4 and 6 according to the present disclosure in a culture dish respectively and cultured for 24 hours in a CO2 incubator, and then treated with 1000 ng/ml of LPS, followed by additional culture for 6 hours in a CO2 incubator.
as §2, with “After the” for “After”, “conditions, washing was performed” for “conditions, cells were washed”, “The cells in the sediment were” for “The pellet was”, “reaction between” for “reaction of”, “Table 9” for “Table 4”

[3] = tested on: TNFα; assay: TNFα inhibitory ability by cellular inflammatory response (supernatant, antibody-coated plate), Raw264.7 cells; type: cell-based; settings: Mus musculus, 1 μM compound 24 hours, then 100 ng/ml LPS 24 hours, supernatant protein
Experimental: Evaluation of TNFα inhibitory ability by cellular inflammatory response
as §1, with “cells” for “cells which are”, “activity” for “activity into”, “for 24” for “for 6”
After the cell culture was completed according to the experimental conditions, the supernatant was obtained and centrifuged for 3 minutes at 1200 rpm. The centrifuged supernatant was dispensed into an antibody-coated plate, reacted at room temperature for 2 hours, and washed with PBS-T (0.5% tween 20 in PBS). After dispensing detection antibody including HRP, a reaction was performed at room temperature for 1 hour, and the amount of protein was checked at a wavelength of 450 nm, the results of which are shown in Table 7 below.

[4] = biological target: p38 alpha (Homo sapiens (Human), UniProt Q16539); assay: p38α MAPK inhibitory ability (peptide/kinase mixture, development reagent, 445/520 nm); type: biochemical; settings: 1 hour at room temperature
p38 alpha, sequence (Q16539 whole entry): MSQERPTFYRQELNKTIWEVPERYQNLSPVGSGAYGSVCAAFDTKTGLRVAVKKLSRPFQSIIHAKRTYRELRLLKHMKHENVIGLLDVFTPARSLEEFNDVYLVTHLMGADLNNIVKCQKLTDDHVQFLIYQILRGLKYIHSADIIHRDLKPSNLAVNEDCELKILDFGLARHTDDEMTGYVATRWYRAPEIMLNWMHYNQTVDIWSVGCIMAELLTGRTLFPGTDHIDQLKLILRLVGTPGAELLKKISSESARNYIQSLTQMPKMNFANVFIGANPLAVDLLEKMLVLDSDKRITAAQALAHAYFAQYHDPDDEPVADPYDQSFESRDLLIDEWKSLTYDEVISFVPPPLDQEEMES
Experimental: Evaluation of p38a mitogen-activated protein kinase (MAPK) inhibitory ability
To determine the ability to inhibit p38 MAPK, Compounds 1 to 5 were diluted to determine the inhibitory effect depending on a concentration. Briefly, the compounds were diluted at concentrations of 1000, 333, 111, 37.0, 12.3, 4.12, 1.37, 0.457, 0.152, and 0.0495 nM, respectively, and then a peptide/kinase mixture (final 7.07-28.3 ng p38 alpha, 2 μM serine/threonine 15, 50 mM HEPES pH 7.0, 0.01% NaN3) and ATP solution were added respectively. After reacting at room temperature for 1 hour, a development reagent was added, followed by a reaction again at room temperature for 1 hour.

T1 sequence (P47811 whole entry): as the sequence (Q16539 whole entry) above, with L48H, T263A counted along it

## Cc1c(F)cc(C(=O)NC2CC2)cc1-c1ccc(C(=O)c2c[nH]c3ccccc23)cn1 [Compound 4, 3-(5-(1H-indole-3-carbonyl)pyridin-2-yl)-N-cyclopropyl-5-fluoro-4-methylbenzamide]
[1]
  inhibition at 1 µM: 68%
[2]; primary mouse neurons, 1 μM
  p38 phosphorylation due to inflammation in normal cells (result in words): effectively inhibited p38 phosphorylation
[2]; primary neurons from cerebrum of ICR mouse embryos, 1 μM compound 24 hours, then 1000 ng/ml LPS 6 hours
  inhibition at 1 µM: 55.8%
[3]
  inhibition at 1 µM: 76.6%
[4]
  IC50: 0.0188 µM
